Laboratory results: the supplement of paper PMC11414989

How the values were obtained:
Settings in all cases: exposure window: 6 hpf to 120 hpf, static, assay age: 120 hpf (5 dpf)
[1] = test system: Danio rerio larvae (Tropical 5D); assay: mean distance moved of exposed larvae, dark phase (µm per frame (1/25 s)); higher = more movement
Description: (§1)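 Larval photomotor response in Tropical 5D wild-type zebrafish. Larvae were statically exposed to each chemical from 6 hpf to 5 dpf in 96-well plates; morphologically abnormal larvae were excluded. At 120 hpf, larvae were tracked with Ethovision XT (25 frames/s) over the 2nd cycle of 3 min light and 3 min dark. Values are the mean movement metric of exposed larvae per phase; same-plate control means (plate-dependent baseline) are given as conditions.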

[2] = test system: Danio rerio larvae (Tropical 5D); assay: mean distance moved of exposed larvae, light phase (µm per frame (1/25 s)); higher = more movement
Description: as §1

[3] = test system: Danio rerio larvae (Tropical 5D); assay: mean angular velocity of exposed larvae, dark phase (angular velocity (unit not stated)); higher = more movement
Description: as §1

[4] = test system: Danio rerio larvae (Tropical 5D); assay: mean angular velocity of exposed larvae, light phase (angular velocity (unit not stated)); higher = more movement
Description: as §1

`CCN(CCOP(=O)(O)O)S(=O)(=O)C(F)(F)C(F)(F)C(F)(F)C(F)(F)C(F)(F)C(F)(F)C(F)(F)C(F)(F)F` was tested, and the “mean distance moved of exposed larvae” value ([1]; 0.25 µM) was 23.4, the “mean distance moved of exposed larvae” value ([2]; 0.25 µM) was 3.01 and the “mean angular velocity of exposed larvae” value ([3]; 0.25 µM) was 0.809. The “mean angular velocity of exposed larvae” value ([4]; 0.25 µM) was 0.169.
With `Cc1cccc2c1ccc1ccccc12` [1-Methylphenanthrene] the “mean distance moved of exposed larvae” value ([1]; 1 µM) was 14.6, the “mean distance moved of exposed larvae” value ([1]; 2.54 µM) was 16.3 and the “mean distance moved of exposed larvae” value ([1]; 6.45 µM) was 19.4. The “mean distance moved of exposed larvae” value ([1]; 16.4 µM) was 17.5, the “mean distance moved of exposed larvae” value ([1]; 35 µM) was 21.2 and the “mean distance moved of exposed larvae” value ([1]; 74.8 µM) was 12.8. The “mean distance moved of exposed larvae” value ([1]; 100 µM) was 10.4, the “mean distance moved of exposed larvae” value ([2]; 1 µM) was 5.24 and the “mean distance moved of exposed larvae” value ([2]; 2.54 µM) was 4.47. For the same compound, the “mean distance moved of exposed larvae” value ([2]; 6.45 µM) was 4.85, the “mean distance moved of exposed larvae” value ([2]; 16.4 µM) was 5.17 and the “mean distance moved of exposed larvae” value ([2]; 35 µM) was 4.57. For the same compound, the “mean distance moved of exposed larvae” value ([2]; 74.8 µM) was 4.58, the “mean distance moved of exposed larvae” value ([2]; 100 µM) was 5.53 and the “mean angular velocity of exposed larvae” value ([3]; 1 µM) was 0.432. The “mean angular velocity of exposed larvae” value ([3]; 2.54 µM) was 0.487, the “mean angular velocity of exposed larvae” value ([3]; 6.45 µM) was 0.604 and the “mean angular velocity of exposed larvae” value ([3]; 16.4 µM) was 0.563. The “mean angular velocity of exposed larvae” value ([3]; 35 µM) was 0.642, the “mean angular velocity of exposed larvae” value ([3]; 74.8 µM) was 0.39 and the “mean angular velocity of exposed larvae” value ([3]; 100 µM) was 0.294. The “mean angular velocity of exposed larvae” value ([4]; 1 µM) was 0.118, the “mean angular velocity of exposed larvae” value ([4]; 2.54 µM) was 0.119 and the “mean angular velocity of exposed larvae” value ([4]; 6.45 µM) was 0.139. For the same compound, the “mean angular velocity of exposed larvae” value ([4]; 16.4 µM) was 0.133, the “mean angular velocity of exposed larvae” value ([4]; 35 µM) was 0.126 and the “mean angular velocity of exposed larvae” value ([4]; 74.8 µM) was 0.12. For the same compound, the “mean angular velocity of exposed larvae” value ([4]; 100 µM) was 0.143.
In the case of `NC(O)(C(F)(F)F)C(F)(F)F` [2-Aminohexafluoropropan-2-ol], the “mean distance moved of exposed larvae” value ([1]; 0.015 µM) was 17.5, the “mean distance moved of exposed larvae” value ([1]; 0.046 µM) was 11.4 and the “mean distance moved of exposed larvae” value ([1]; 0.14 µM) was 13. The “mean distance moved of exposed larvae” value ([1]; 0.41 µM) was 13, the “mean distance moved of exposed larvae” value ([1]; 1.23 µM) was 6.93 and the “mean distance moved of exposed larvae” value ([1]; 3.7 µM) was 18.8. For the same compound, the “mean distance moved of exposed larvae” value ([1]; 11.1 µM) was 11.2, the “mean distance moved of exposed larvae” value ([1]; 33.3 µM) was 18.3 and the “mean distance moved of exposed larvae” value ([1]; 66.5 µM) was 14.6. The “mean distance moved of exposed larvae” value ([1]; 100 µM) was 27.2, the “mean distance moved of exposed larvae” value ([2]; 0.015 µM) was 1.1 and the “mean distance moved of exposed larvae” value ([2]; 0.046 µM) was 0.932. For the same compound, the “mean distance moved of exposed larvae” value ([2]; 0.14 µM) was 0.925, the “mean distance moved of exposed larvae” value ([2]; 0.41 µM) was 0.917 and the “mean distance moved of exposed larvae” value ([2]; 1.23 µM) was 0.251. The “mean distance moved of exposed larvae” value ([2]; 3.7 µM) was 1.12, the “mean distance moved of exposed larvae” value ([2]; 11.1 µM) was 0.717 and the “mean distance moved of exposed larvae” value ([2]; 33.3 µM) was 1.18. The “mean distance moved of exposed larvae” value ([2]; 66.5 µM) was 0.668, the “mean distance moved of exposed larvae” value ([2]; 100 µM) was 0.989 and the “mean angular velocity of exposed larvae” value ([3]; 0.015 µM) was 0.62. The “mean angular velocity of exposed larvae” value ([3]; 0.046 µM) was 0.444, the “mean angular velocity of exposed larvae” value ([3]; 0.14 µM) was 0.508 and the “mean angular velocity of exposed larvae” value ([3]; 0.41 µM) was 0.552. For the same compound, the “mean angular velocity of exposed larvae” value ([3]; 1.23 µM) was 0.344, the “mean angular velocity of exposed larvae” value ([3]; 3.7 µM) was 0.702 and the “mean angular velocity of exposed larvae” value ([3]; 11.1 µM) was 0.423. The “mean angular velocity of exposed larvae” value ([3]; 33.3 µM) was 0.702, the “mean angular velocity of exposed larvae” value ([3]; 66.5 µM) was 0.491 and the “mean angular velocity of exposed larvae” value ([3]; 100 µM) was 0.969. The “mean angular velocity of exposed larvae” value ([4]; 0.015 µM) was 0.0444, the “mean angular velocity of exposed larvae” value ([4]; 0.046 µM) was 0.0195 and the “mean angular velocity of exposed larvae” value ([4]; 0.14 µM) was 0.0424. The “mean angular velocity of exposed larvae” value ([4]; 0.41 µM) was 0.0293, the “mean angular velocity of exposed larvae” value ([4]; 1.23 µM) was 0.00969 and the “mean angular velocity of exposed larvae” value ([4]; 3.7 µM) was 0.0543. The “mean angular velocity of exposed larvae” value ([4]; 11.1 µM) was 0.0181, the “mean angular velocity of exposed larvae” value ([4]; 33.3 µM) was 0.0369 and the “mean angular velocity of exposed larvae” value ([4]; 66.5 µM) was 0.0243. For the same compound, the “mean angular velocity of exposed larvae” value ([4]; 100 µM) was 0.0458.
`Cc1ccc2c(ccc3ccccc32)c1` [2-Methylphenanthrene] was tested, and the “mean distance moved of exposed larvae” value ([1]; 1 µM) was 16.4, the “mean distance moved of exposed larvae” value ([1]; 2.54 µM) was 12.1 and the “mean distance moved of exposed larvae” value ([1]; 6.45 µM) was 15. For the same compound, the “mean distance moved of exposed larvae” value ([1]; 16.4 µM) was 15.5, the “mean distance moved of exposed larvae” value ([1]; 35 µM) was 16.9 and the “mean distance moved of exposed larvae” value ([1]; 74.8 µM) was 13.3. The “mean distance moved of exposed larvae” value ([1]; 100 µM) was 13.2, the “mean distance moved of exposed larvae” value ([2]; 1 µM) was 2.38 and the “mean distance moved of exposed larvae” value ([2]; 2.54 µM) was 1.4. For the same compound, the “mean distance moved of exposed larvae” value ([2]; 6.45 µM) was 1.73, the “mean distance moved of exposed larvae” value ([2]; 16.4 µM) was 2.82 and the “mean distance moved of exposed larvae” value ([2]; 35 µM) was 1.74. For the same compound, the “mean distance moved of exposed larvae” value ([2]; 74.8 µM) was 2.4, the “mean distance moved of exposed larvae” value ([2]; 100 µM) was 1.83 and the “mean angular velocity of exposed larvae” value ([3]; 1 µM) was 0.536. The “mean angular velocity of exposed larvae” value ([3]; 2.54 µM) was 0.424, the “mean angular velocity of exposed larvae” value ([3]; 6.45 µM) was 0.539 and the “mean angular velocity of exposed larvae” value ([3]; 16.4 µM) was 0.592. The “mean angular velocity of exposed larvae” value ([3]; 35 µM) was 0.507, the “mean angular velocity of exposed larvae” value ([3]; 74.8 µM) was 0.473 and the “mean angular velocity of exposed larvae” value ([3]; 100 µM) was 0.439. For the same compound, the “mean angular velocity of exposed larvae” value ([4]; 1 µM) was 0.0841, the “mean angular velocity of exposed larvae” value ([4]; 2.54 µM) was 0.0709 and the “mean angular velocity of exposed larvae” value ([4]; 6.45 µM) was 0.0511. The “mean angular velocity of exposed larvae” value ([4]; 16.4 µM) was 0.126, the “mean angular velocity of exposed larvae” value ([4]; 35 µM) was 0.0754 and the “mean angular velocity of exposed larvae” value ([4]; 74.8 µM) was 0.0848. The “mean angular velocity of exposed larvae” value ([4]; 100 µM) was 0.0583.
In the case of `O=C(O)CCC(F)(F)C(F)(F)C(F)(F)C(F)(F)C(F)(F)C(F)(F)C(F)(F)F` [3-Perfluoroheptyl propanoic acid], the “mean distance moved of exposed larvae” value ([1]; 0.25 µM) was 12.1, the “mean distance moved of exposed larvae” value ([2]; 0.25 µM) was 1.75 and the “mean angular velocity of exposed larvae” value ([3]; 0.25 µM) was 0.534. The “mean angular velocity of exposed larvae” value ([4]; 0.25 µM) was 0.0662.
In the case of `O=C(O)CCC(F)(F)C(F)(F)C(F)(F)C(F)(F)C(F)(F)F` [3-Perfluoropentyl propanoic acid], the “mean distance moved of exposed larvae” value ([1]; 0.25 µM) was 14.9, the “mean distance moved of exposed larvae” value ([2]; 0.25 µM) was 1.49 and the “mean angular velocity of exposed larvae” value ([3]; 0.25 µM) was 0.61. The “mean angular velocity of exposed larvae” value ([4]; 0.25 µM) was 0.0445.
`O=P(O)(O)C(F)(F)C(F)(F)C(F)(F)C(F)(F)C(F)(F)C(F)(F)Cl` [6-Chloroperfluorohexylphosphonic acid] was tested, and the “mean distance moved of exposed larvae” value ([1]; 0.167 µM) was 20.6, the “mean distance moved of exposed larvae” value ([2]; 0.167 µM) was 6.62 and the “mean angular velocity of exposed larvae” value ([3]; 0.167 µM) was 0.789. For the same compound, the “mean angular velocity of exposed larvae” value ([4]; 0.167 µM) was 0.212.
In the case of `O=P(O)(O)C(F)(F)C(F)(F)C(F)(F)C(F)(F)C(F)(F)C(F)(F)C(F)(F)C(F)(F)Cl` [8-Chloroperfluorooctylphosphonic acid], the “mean distance moved of exposed larvae” value ([1]; 0.167 µM) was 24.4, the “mean distance moved of exposed larvae” value ([2]; 0.167 µM) was 7.53 and the “mean angular velocity of exposed larvae” value ([3]; 0.167 µM) was 0.9. For the same compound, the “mean angular velocity of exposed larvae” value ([4]; 0.167 µM) was 0.234.
